Here are results for six compounds from US5658913A, “Chemopreventive compounds and a preparation method and use thereof” (Kim; Nak Doo, priority 1993, dated 1997).

Common to all, as to format: in vivo, Sprague-Dawley rat
Assay [1] deals with p-nitrophenol hydroxylase. In words: p-Nitrophenol hydroxylase activity in combination with INAH (Experimental Example 2(2)). To be noted: INAH alone = 100%; INAH plus compound, each 200 mg/kg i.p. The procedure: Thus, 1 mg of microsomes and 1mM p-nitrophenol were added to 0.6 ml of 0.1M potassium phosphate buffer(pH 6.8) to make the total volume of 0.9 ml. The resulting mixture was preliminarily reacted in a 37° C. incubator for 2 minutes and started to react while adding 1 mM NADPH(0.1 ml). After 3 minutes, 0.5 ml of 0.6N perchloric acid was added to develop a color and the absorbance at 546 nm was measured at once. The enzyme activity was expressed in terms of mole concentration of 4-nitrocatechol, the product of reaction for 1 minute.
(§1) In order to examine the effect of the compound of the present invention on the activity of the enzymes involved in phase I reaction when administered in combination with INAH, the experiments were carried out as follows:
(§2) Eight groups of Sprague-Dawley rat weighing 190±30 g were intraperitoneally administered with INAH(Group 1), or INAH plus the compounds of Examples 2 to 8(Groups 2 to 8), each in a dose of 200 mg/kg. The inventive compounds and INAH were diluted with corn oil and PBS respectively, and the test compounds were administered just after administering INAH.
(§3) The changes in the activity of p-nitrophenol hydroxylase and aniline hydroxylase were measured by following the same procedure as in Experimental Example 1(2-1) and (2-2). The activity of enzymes was determined by considering the activity of enzyme when INAH alone was administered as 100%.

A further assay has as its system aniline hydroxylase. Put plainly: Aniline hydroxylase activity in combination with INAH (Experimental Example 2(2)). To be noted: for Aniline hydroxylase, Amount: INAH 200 mg/kg i.p., alone or plus compound 200 mg/kg; for Aniline hydroxylase, Activity: INAH alone = 100%, INAH plus compound, each 200 mg/kg i.p. The procedure:
Thus, 1 mg of microsomes and 5 mM aniline were added to 0.6 ml of 0.1M potassium phosphate buffer(pH 6.8) to make the total volume of 0.9 ml. 1 mM NADPH was added to make the total volume of 1.0 ml and the resulting mixture was reacted at 37° C. After 10 minutes, 20% trichloroacetic acid was added to stop the reaction and the reaction mixture was centrifuged. To 1 ml of supernatant were added 0.1 ml of 5% phenol and 0.1 ml of 2.5N sodium carbonate, dissolved in 0.1N NaOH. The mixture was allowed to stand for 30 minutes to develop a color and the absorbance at 630 nm was measured at once. The enzyme activity was expressed in terms of mole concentration of 4-aminophenol, the product of reaction for 1 minute.
as §1, §2, §3

In assay [2] the test system is Glutathion S-transferase (GST). In words: GST activity, administered alone or in combination with INAH (Experimental Example 4(2)). The following applies: for induction of expression of glutathione S-transferase when INAH is administered: in words. The procedure: Thus, to 25 μg(0.1 ml) of cytosol protein were added 0.1 mM […] and 1.0 mM glutathione as substrates, and 0.1M potassium phosphate were added to make the total volume of 1.0 ml(pH 6.4). The resulting mixture was allowed to stand at room temperature for 2 minutes and measured for its absorbance at 340 nm at intervals of 15 seconds during the period of 1 minute. As a reference, a cytosol protein denatured by heating was used. The activity of GST was calculated by measuring the change of absorbance for the period of 1 minute and employing the extinction coefficient of 9.6 mM^-1 cm^-1.
In order to examine the effect of the compound of the present invention on the activity of the enzymes involved in phase II reaction when administered alone or in combination with INAH, the experiments were carried out as follows:
Sixteen groups of Sprague-Dawley rat weighing 190±30 g were intraperitoneally administered with corn oil(Group 1), compounds of Examples 2 to 8(Groups 2 to 8), INAH(Group 9), or INAH plus the compounds of Examples 2 to 8(Groups 10 to 16), each in a dose of 200 mg/kg. The inventive compounds and INAH were diluted with corn oil, and the test compounds were administered just after administering INAH.
The change in the activity of GST was measured by following the same procedure as in Experimental Example 3(2). The activity of enzyme was determined by considering the activity of enzyme when corn oil or INAH alone was administered as 100%.

The test system of assay [3] is p-nitrophenol hydroxylase. Put plainly: p-Nitrophenol hydroxylase activity in combination with INAH (Experimental Example 2(2)). The following applies: INAH 200 mg/kg i.p., alone or plus compound 200 mg/kg.
Setting [4] is: INAH alone or INAH plus compound, each 200 mg/kg i.p.
The mark [5] stands for this setting: INAH plus compound, each 200 mg/kg i.p., INAH alone = 100%.
Setting [6] is: compound alone, 200 mg/kg i.p., corn oil = 100%.

Where only a bound is given, the exact number is not on record here.

As to `c1ccc(CSc2cnccn2)cc1` [Example 2, 2-(benzylthio)pyrazine], the “p-Nitrophenol hydrolase, Activity” value in assay [1] turned out to be 78%. The “Aniline hydroxylase, Amount” value in the assay with aniline hydroxylase worked out at 1.070 nmol/min/mg protein. The “Aniline hydroxylase, Activity” value with aniline hydroxylase is recorded as 74%. Further, the “Glutathion S-transferase, Amount” value in assay [2] (setting [4]) came out at 2.675 nmol/min/mg protein; in assay [2] (compound alone, 200 mg/kg i.p.), 2.533 nmol/min/mg protein. In addition, the figures for the “Glutathion S-transferase, Activity” value in assay [2] (setting [5]) and in assay [2] (setting [6]) were 133% and 147%, respectively. Besides, the “p-Nitrophenol hydrolase, Amount” value in assay [3] is 4.52 nmol/min/mg protein.
With `c1coc(CSc2cnccn2)c1` [Example 5, 2-(furfurylthio)pyrazine], the “p-Nitrophenol hydrolase, Activity” value in assay [1] came to 61%. For the same compound, the “Aniline hydroxylase, Amount” value in the assay with aniline hydroxylase was determined as 0.972 nmol/min/mg protein. In the assay on aniline hydroxylase, the “Aniline hydroxylase, Activity” value came out at 67%. Moreover, the “Glutathion S-transferase, Amount” value in assay [2] (setting [4]) is on record as 3.029 nmol/min/mg protein; in assay [2] (compound alone, 200 mg/kg i.p.), 2.996 nmol/min/mg protein. The “Glutathion S-transferase, Activity” value in assay [2] (setting [5]) is given as 151%; in assay [2] (setting [6]) it was 174%. The “induction of expression of glutathione S-transferase when INAH is administered” value in assay [2] (INAH plus compound) is listed as “strongly induce expression of enzyme”. Besides, the “increase of expression of glutathione S-transferase” value in assay [2] (compound alone, 200 mg/kg i.p., Table 3) is given as at least 70%. Further, the “p-Nitrophenol hydrolase, Amount” value in assay [3] turned out to be 3.53 nmol/min/mg protein.
Turning to `CC(C)=CCSc1cnccn1` [Example 3, 2-(3-methyl-2-butenylthio)pyrazine], the “p-Nitrophenol hydrolase, Activity” value in assay [1] is 73%. In addition, the “Aniline hydroxylase, Amount” value with aniline hydroxylase is 1.108 nmol/min/mg protein. Also, the “Aniline hydroxylase, Activity” value with aniline hydroxylase stood at 76%. In addition, the “Glutathion S-transferase, Amount” value in assay [2] (setting [4]) was 3.071 nmol/min/mg protein; in assay [2] (compound alone, 200 mg/kg i.p.), 2.708 nmol/min/mg protein. Further, the “Glutathion S-transferase, Activity” value in assay [2] (setting [5]) is listed as 153%; in assay [2] (setting [6]) it was 157%. Also, the “induction of expression of glutathione S-transferase when INAH is administered” value in assay [2] (INAH plus compound) is given as “strongly induce expression of enzyme”. The “p-Nitrophenol hydrolase, Amount” value in assay [3] is on record as 4.23 nmol/min/mg protein.
For `C(=Cc1ccccc1)CSc1cnccn1` [Example 4, 2-(cinnamylthio)pyrazine], the “p-Nitrophenol hydrolase, Activity” value in assay [1] came out at 64%. Further, the “Aniline hydroxylase, Amount” value in the assay with aniline hydroxylase amounted to 0.972 nmol/min/mg protein. Also, the “Aniline hydroxylase, Activity” value in the assay with aniline hydroxylase was determined as 67%. The “Glutathion S-transferase, Amount” value in assay [2] (setting [4]) turned out to be 2.683 nmol/min/mg protein; in assay [2] (compound alone, 200 mg/kg i.p.), 2.892 nmol/min/mg protein. Further, the figures for the “Glutathion S-transferase, Activity” value in assay [2] (setting [5]) and in assay [2] (setting [6]) were 134% and 168%, respectively. Also, the “p-Nitrophenol hydrolase, Amount” value in assay [3] is 3.69 nmol/min/mg protein.
Consider `NNC(=O)c1ccncc1` [INAH, isoniazid, reference compound], for which the “p-Nitrophenol hydrolase, Activity” value in assay [1] stood at 100%. In addition, in the assay on aniline hydroxylase, the “Aniline hydroxylase, Amount” value is 1.453 nmol/min/mg protein and the “Aniline hydroxylase, Activity” value amounted to 100%. Besides, the “Glutathion S-transferase, Amount” value in assay [2] (setting [4]) came out at 2.008 nmol/min/mg protein. For the same compound, the “Glutathion S-transferase, Activity” value in assay [2] (setting [5]) is recorded as 100%. Also, the “p-Nitrophenol hydrolase, Amount” value in assay [3] is listed as 5.80 nmol/min/mg protein.
As for `C=C(C)CCSc1cnccn1` [Example 6, 2-(3-methyl-3-butenylthio)pyrazine], in assay [1], the “p-Nitrophenol hydrolase, Activity” value turned out to be 56%. Further, the “Aniline hydroxylase, Amount” value in the assay with aniline hydroxylase is listed as 0.879 nmol/min/mg protein. Also, the “Aniline hydroxylase, Activity” value with aniline hydroxylase turned out to be 60%. Besides, the “Glutathion S-transferase, Amount” value in assay [2] (setting [4]) is 2.375 nmol/min/mg protein; in assay [2] (compound alone, 200 mg/kg i.p.), 2.558 nmol/min/mg protein. Moreover, the “Glutathion S-transferase, Activity” value came to 118% in assay [2] (setting [5]) and 148% in assay [2] (setting [6]). Moreover, the “p-Nitrophenol hydrolase, Amount” value in assay [3] is reported as 3.25 nmol/min/mg protein.
